Measurements: US20220218627A1 (priority 2019, published 2022)

Columns and labels:
[1] = tested on: major depressive disorder; settings: in vivo; cited from earlier work
[2] = tested on: Cluster headache patients; settings: human, in vivo
[3] = tested on: migraine or Cluster headache patients; settings: in vivo, iv; cited from earlier work
[4] = in vivo; cited from earlier work
[5] = tested on: pediatric procedural pain; settings: in vivo; cited from earlier work
acute traumatic pain = settings: in vivo; cited from earlier work

CNC1(c2ccccc2Cl)CCCCC1=O (stereo not drawn) [ketamine, 2-(2-chlorophenyl)-2-(methylamino)cyclohexanone]
effect on depressive symptoms [1]: rapid improvement of the depressive symptoms | serious adverse effects [1]: No serious adverse effects occurred | Case 1: number of sprays after which patient reported feeling better [2]: 2-3 sprays | Case 1: side effects (dysphoria, out-of-body) [2]: no side effects | Case 2: cluster headache episode frequency over about a year [2]: beginning to get less frequent | Case 3: long-term course of cluster headache episodes [2]: only had one short cluster headache episode in the last three to four years | Cases 1-3: change from initial baseline on 0 to 10 Visual Analogue Scale (VAS) [2]: above 65% | Cases 1-3: dysphoria or nausea [2]: Increased dysphoria or nausea was not noted | Cases 1-3: out-of-body experiences or hallucinations [2]: No out-off body experiences, or hallucinations were observed | Case 1: outcome of IV treatment on cluster headaches ([2]; iv): complete cessation of the cluster headaches in three days | Case 2: change in cluster headache frequency ([2]; iv): from 5 episodes per day to only one cluster headache in the next week | Case 3: shortening of the duration of the cluster episode ([2]; iv): greater than two-thirds | patients complaining of spaciness, fearfulness, jitteriness or lack of personal control [3]: approximately 43% | patients experiencing nausea at some point during treatment [3]: 3.2% | terminal plasma half-life [4]: 2 to 3 h | time to peak plasma concentrations [4]: 10 to 15 min | onset of analgesia [5]: rapid onset of analgesia | side effects [5]: only slight sedation | efficacy in pain treatment compared to morphine IV or IM (acute traumatic pain): equal efficient in pain treatment | hallucinations or out-of-body experience (acute traumatic pain): No patients complained of hallucinations or out of-body experience | side effects (acute traumatic pain): mainly dizziness | time to onset (acute traumatic pain): approx. 15 min

CCCC(CCC)C(=O)O [Depacon]
Case 3: success in shutting the cluster episode down ([2]; iv): only partial success

CCN(CC)CC(=O)Nc1c(C)cccc1C [lidocaine]
Case 3: success in shutting the cluster episode down ([2]; iv): only partial success
